Results reported in US20180111913A1, “SUBSTITUTED BENZOFURAN DERIVATIVES AS NOVEL ANTIMYCOBACTERIAL AGENTS” (priority 2015, published 2018).
In brackets after ≈: the same amount, converted by molar mass. Like-named read-outs stand apart in the source and are kept apart here.

Tests used:
[1] = biological target: Mtb Pks13-TE domain (wild-type) (Mycobacterium tuberculosis, UniProt I6X8D2); assay: biochemical; assay type: biochemical; details: for IC50: read-out: IC50
Mtb strain mc^27000 = assay: microbe, parasite or virus in culture; assay type: cell-based, Mycobacterium tuberculosis; details: for MIC: read-out: MIC
[2] = Mycobacterium tuberculosis, Mtb mc^27000, liquid medium, 96-well plates
[3] = Mycobacterium tuberculosis, read-out: percentage inhibition observed (incomplete inhibition)
[4] = Mtb mc^27000, liquid medium, 96-well plates

Mtb Pks13-TE domain (wild-type), sequence (I6X8D2 1451-1733): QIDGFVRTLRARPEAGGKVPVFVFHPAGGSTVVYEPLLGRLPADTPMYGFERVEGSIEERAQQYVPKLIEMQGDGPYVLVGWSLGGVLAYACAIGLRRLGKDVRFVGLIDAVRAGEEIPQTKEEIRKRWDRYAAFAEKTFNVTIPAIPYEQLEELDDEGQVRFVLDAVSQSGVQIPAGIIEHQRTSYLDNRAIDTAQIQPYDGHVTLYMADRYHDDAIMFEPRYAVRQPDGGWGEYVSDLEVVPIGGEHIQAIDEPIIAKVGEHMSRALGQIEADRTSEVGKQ

| SMILES | IC50 ([1]; Pks13-TE, 20 μM 4-MUH) | MIC (Mtb strain mc^27000; [2]) | other results |
| --- | --- | --- | --- |
| CNC(=O)c1c(-c2ccnc(OC)c2)oc2cc(OC)cc(CN3CCCCC3)c12 [compound 86] | > 20 µM | > 20 µM | – |
| O=C(c1c(-c2ccccc2)oc2ccc(O)c(CN3CCCCC3)c12)N1CCOCC1 [compound 46] | 0.34 µM | > 20 µM | – |
| CNC(=O)c1c(-c2ccccc2)oc2cc(OCC(=O)OC)cc(CN3CCCCC3)c12 [compound 93] | 10 µM | – | inhibition at 40 µM (Mtb strain mc^27000; [3]): 16% |
| CCOC(=O)c1c(-c2ccccc2)oc2ccc(O)c(CCN3CCCC3C(=O)O)c12 (stereo not drawn) [compound 244] | > 40 µM | 20 to 40 µM (≈ 8.47 to 16.9 µg/mL) | – |
| CNC(=O)c1c(-c2ccccc2)oc2ccc(O)c(CN3CCCC(CO)C3)c12 (stereo not drawn) [compound 135] | 2 µM | 0.5 µM (≈ 0.197 µg/mL) | – |
| CCOC(=O)c1c(-c2ccccc2)oc2ccc(O)c(CCCN3CCC(CO)CC3)c12 [compound 166] | 0.5 µM | 6.1 µM (≈ 2.67 µg/mL) | – |
| CC(C)N1Cc2cc(O)cc3oc(-c4ccccc4)c(c23)C1=O [compound 71] | 9 µM | > 20 µM | – |
| CNC(=O)c1c(-c2cccc(O)c2)oc2cc(O)cc(CN3CCCCC3)c12 [compound 89] | 9 µM | 1.2 µM (≈ 0.457 µg/mL) | – |
| CCOC(=O)c1c(-c2ccccc2)oc2cc(NC(C)=O)c(O)c(CN3CCCCC3)c12 [compound 28] | 3.1 µM | – | MIC (Mtb strain mc^27000; [4]): 20 µM (≈ 8.73 µg/mL) |
| NC1CCN(C(=O)c2c(-c3ccccc3)oc3ccc(O)c(CN4CCCCC4)c23)CC1 [compound 54] | 5.3 µM | 20 µM (≈ 8.67 µg/mL) | – |
| CCOC(=O)c1c(-c2ccccc2)oc2ccc(O)c(Cc3ccccc3)c12 [compound 10] | 11.9 µM | 40 µM (≈ 14.9 µg/mL) | – |
| CCOC(=O)c1c(-c2ccccc2)oc2cc([N+](=O)[O-])c(O)c(CN3CCCCC3)c12 [compound 26] | 1.3 µM | 5.4 µM (≈ 2.29 µg/mL) | – |
| CCOC(=O)c1c(-c2ccccc2)oc2cccc(CN3CCCCC3)c12 [compound 24] | 2 µM | – | IC50 ([1]; Mtb Pks13-TE domain, mean ± s.d. of triplicates): 2 ± 0.1 µM; loss / decrease in inhibitory activity compared to compound I ([1]; relative to compound I): ~7 fold; MIC (Mtb strain mc^27000; [4]): 16 µM (≈ 5.82 µg/mL); MIC (Mtb strain mc^27000; […], mean ± s.d. of triplicates, NI: no inhibition): 16 µM (≈ 5.82 µg/mL) |
| CCOC(=O)c1c(-c2ccccc2)oc2cc(OC)cc(CN3CCCCC3)c12 [compound 37] | 29 µM | – | MIC (Mtb strain mc^27000; [4]): 7.3 µM (≈ 2.87 µg/mL) |
| CCOC(=O)c1c(-c2ccccc2)oc2ccc(O)c(CCCN3CC[C@H]3CO)c12 [compound 213] | 2.3 µM | – | MIC (Mtb strain mc^27000; [4]): 0.97 µM (≈ 0.397 µg/mL) |
| CC(C)NCCc1c(O)ccc2oc(-c3ccc(O)cc3)c(C(=O)N(C)C)c12 [compound 209] | 1.8 µM | – | MIC (Mtb strain mc^27000; [4]): 0.45 µM (≈ 0.172 µg/mL) |
| CNC(=O)c1c(-c2cccc(OC)c2)oc2ccc(O)c(CN3CCCCC3)c12 [compound 56] | 0.4 µM | – | MIC (Mtb strain mc^27000; [4]): 9.0 µM (≈ 3.55 µg/mL) |
| Oc1ccc2nc(-c3ccccc3)[nH]c2c1CN1CCCC1 [compound 110] | 6.8 µM | 22 µM (≈ 6.45 µg/mL) | – |
| CCOC(=O)c1c(-c2ccc(O)c(F)c2)oc2ccc(O)c(CN3CCCCC3)c12 [compound 59] | 0.29 µM | 0.3 µM (≈ 0.124 µg/mL) | – |
| CCOC(=O)c1c(-c2ccccc2)oc2ccc(O)c(CN3CCC(O)CC3)c12 [compound 117] | 0.18 µM | 5.6 µM (≈ 2.21 µg/mL) | – |
| CC[C@@H](CO)NCCc1c(O)ccc2oc(-c3ccccc3)c(C(=O)NC)c12 [compound 235] | 2.3 µM | > 40 µM | – |
| CCOC(=O)c1c(-c2cccc(O)c2)oc2ccc(O)c(CN3CCCCC3)c12 [compound 50] | 0.23 µM | – | MIC (Mtb strain mc^27000; [4]): 0.23 µM (≈ 0.091 µg/mL) |
| COC(=O)n1c(-c2ccccc2)c(Br)c2cccc(CN3CCCCC3)c21 [compound 108] | 2 µM | – | inhibition at 20 µM (Mtb strain mc^27000; Mycobacterium tuberculosis, at 20 μM, read-out: percentage inhibition observed (incomplete inhibition)): 26% |
| NC(=O)c1c(-c2ccc(O)cc2)oc2ccc(O)c(CN3CCCCC3)c12 [compound 125] | 0.17 µM | 1.3 µM (≈ 0.476 µg/mL) | – |
| CNC(=O)c1c(-c2ccccc2)oc2ccc(OC)c(C(O)c3ccccc3)c12 (stereo not drawn) [compound 20] | 50 µM | 50 µM (≈ 19.4 µg/mL) | – |
| CNC(=O)c1c(-c2ccccc2)oc2cc(OCCN)cc(CN3CCCCC3)c12 [compound 91] | 10 µM | – | inhibition at 40 µM (Mtb strain mc^27000; [3]): 34% |
| CCOC(=O)c1c(-c2ccccc2)oc2ccc(O)c(CN3CCCC(CO)C3)c12 (stereo not drawn) [compound 132] | 0.42 µM | – | MIC (Mtb strain mc^27000; [4]): 10 µM (≈ 4.09 µg/mL) |
